Measurements as given in a melting point compilation (Tetko et al.).

SMILES: OCCOc1ccc(Br)cc1
- melting point: 53 to 55 °C

SMILES: O=C(O)c1cc(S(=O)(=O)NCc2ccco2)c(Cl)cc1Cl
- melting point: 149 to 151 °C

SMILES: Nc1ccn(CCc2ccncc2)n1
- melting point: 140 to 142 °C

SMILES: Nc1cc(-c2cccc(F)c2)no1
- melting point: 103 to 105 °C

SMILES: Cc1cc2oc(=O)cc(CCl)c2cc1C
- melting point: 188 to 190 °C

SMILES: COCCOc1ccc(Cl)cc1S(=O)(=O)Cl
- melting point: 38 to 40 °C

SMILES: O=C(O)c1nn(-c2ccc(Br)cc2)c2c1CCCC2
- melting point: 232 to 234 °C

SMILES: OCc1cnn(-c2ccccc2)n1
- melting point: 70 to 72 °C

SMILES: Cc1ccc(C)n1CC(=O)O
- melting point: 99 to 101 °C

SMILES: O=S1(=O)CCC(Cc2nnc(S)o2)C1 (configuration not stated)
- melting point: 160 to 162 °C

SMILES: COC(=O)c1cc(N)cc(F)c1F
- melting point: 89 to 91 °C

SMILES: CCOC(=O)c1c(N)sc2c1CCN(C(=O)OCC)C2
- melting point: 145 to 147 °C

SMILES: COCCn1cnc2c1c(=O)n(CC(=O)O)c(=O)n2Cc1ccccc1
- melting point: 131 to 133 °C

SMILES: O=C(O)c1ccc(OCC2CCCO2)cc1 (configuration not stated)
- melting point: 130 to 132 °C

SMILES: CC(C(=O)O)c1ccc2c(c1)OCCO2 (configuration not stated)
- melting point: 77 to 79 °C

SMILES: O=C(O)CCCCN1CCOCC1
- melting point: 99 to 101 °C

SMILES: CN(c1ccccc1)c1ccc(C(=O)O)cn1
- melting point: 176 to 178 °C

SMILES: O=C1CCCc2c(Cl)sc(Cl)c21
- melting point: 37 to 39 °C

SMILES: O=C(NCCN1CCOCC1)C1CCNCC1
- melting point: 127 to 129 °C

SMILES: Cc1nn(C)c(C)c1C(=O)NC1(C(=O)O)CCCC1
- melting point: 235 to 237 °C

SMILES: Sc1nncn1-c1ccccc1
- melting point: 172 to 174 °C

SMILES: COc1cc(CC#N)ccc1SC(F)F
- melting point: 41 to 43 °C

SMILES: CC(N)c1ccc2c(c1)CC(=O)N2C (configuration not stated)
- melting point: 101 to 103 °C

SMILES: CN1Cc2ccc(N)cc2C1
- melting point: 61 to 63 °C

SMILES: Cc1cccc2cc(C(=O)O)[nH]c12
- melting point: 169 to 175 °C

SMILES: c1ccc(-n2cccn2)nc1
- melting point: 37 to 39 °C

SMILES: Cc1ccccc1NC1=NC(C)(C)CS1
- melting point: 159 to 161 °C

SMILES: O=Cc1cn(-c2ccccc2)nn1
- melting point: 97 to 99 °C

SMILES: CCC(NC(=O)OC(C)(C)C)C(=O)O (configuration not stated)
- melting point: 88 to 90 °C

SMILES: Cc1sc2nc(Cn3cnc([N+](=O)[O-])c3)nc(Cl)c2c1C
- melting point: 185 to 187 °C

SMILES: COc1ccc2c(C)cc3nnc(S)n3c2c1
- melting point: 256 to 258 °C

SMILES: O=c1c2ccccc2c(-c2nnc(S)o2)nn1Cc1ccccc1
- melting point: 238 to 242 °C

SMILES: Nc1cccc(NC(=O)NCc2ccncc2)c1
- melting point: 159 to 161 °C

SMILES: Cc1ccc(Oc2ccc(N)cc2)nc1
- melting point: 90 to 92 °C

SMILES: COc1ccc(Cl)cc1-c1nnc(N)o1
- melting point: 201 to 203 °C

SMILES: O=C(O)c1ccc(OC2CCC2)cc1
- melting point: 191 to 193 °C

SMILES: O=C(NC1CCS(=O)(=O)C1)OCC(F)(F)F (configuration not stated)
- melting point: 79 to 81 °C

SMILES: O=C(O)c1cccc(OCC2CCCO2)c1 (configuration not stated)
- melting point: 86 to 88 °C

SMILES: Oc1cccc(-n2cccn2)c1
- melting point: 131 to 133 °C

SMILES: Nc1ccnn1CCc1ccccc1
- melting point: 67 to 69 °C

SMILES: COc1ccc(OC)c(C(C)NC(=O)C(C)Cl)c1 (configuration not stated)
- melting point: 96 to 98 °C

SMILES: Cc1ccccc1Cc1nn[nH]n1
- melting point: 156 to 158 °C

SMILES: NCCCN1C(=O)NC2(CCCCC2)C1=O
- melting point: 124 to 126 °C

SMILES: NS(=O)(=O)CCCCl
- melting point: 63 to 65 °C

SMILES: O=C(O)C1CCN(C(=O)Nc2ccccc2)CC1
- melting point: 178 to 183 °C

SMILES: CN1C(=O)CCC(C(N)=O)C1c1ccccc1 (configuration not stated)
- melting point: 222 to 224 °C

SMILES: CCOc1ccccc1-n1nnnc1S
- melting point: 53 to 55 °C

SMILES: Cc1cc(NC(=O)C(Br)C(C)C)no1 (configuration not stated)
- melting point: 96 to 98 °C

SMILES: COC(=O)C=Cc1ccc(C(F)(F)F)cc1
- melting point: 74 to 76 °C

SMILES: CC(=O)c1cc(Cl)cc(CN2CCN(C(C)=O)CC2)c1O
- melting point: 136 to 138 °C

SMILES: CCS(=O)(=O)CC(=O)O
- melting point: 57 to 59 °C

SMILES: O=C(O)c1cc(S(=O)(=O)NCc2cccnc2)c(Cl)cc1Cl
- melting point: 245 to 247 °C

SMILES: Cc1nn(-c2ccc(F)cc2)cc1C=O
- melting point: 91 to 93 °C

SMILES: Nc1nc2cc(F)c(F)cc2[nH]1
- melting point: 144 to 146 °C

SMILES: O=C(O)Cc1csc(-c2cccc(Cl)c2)n1
- melting point: 104 to 109 °C

SMILES: Clc1nc(CN2CCOCC2)nc2sc3c(c12)CCC3
- melting point: 103 to 107 °C

SMILES: Cn1cc(C(=O)O)c(-c2ccc([N+](=O)[O-])cc2)n1
- melting point: 299 to 301 °C

SMILES: O=Cc1cc(Br)c2c(c1)OCO2
- melting point: 117 to 119 °C

SMILES: CS(=O)(=O)c1cc(C(=O)O)cc([N+](=O)[O-])c1
- melting point: 229 to 231 °C

SMILES: COc1ccc(C2(c3ccc(OC)cc3)NC(=O)NC2=O)cc1
- melting point: 237 to 239 °C

SMILES: Nc1ccc(-c2nnc3n2CCCC3)cc1
- melting point: 227 to 229 °C

SMILES: Nc1ccc2nc(CN3CCOCC3)[nH]c2c1
- melting point: 160 to 162 °C

SMILES: COc1ccc(CCC2CCCCN2)cc1OC (configuration not stated)
- melting point: 39 to 41 °C

SMILES: NC1=NN(c2ccccc2)CC1
- melting point: 168 to 170 °C

SMILES: O=C(O)COc1ccc(S(=O)(=O)Cl)cc1F
- melting point: 131 to 133 °C

SMILES: O=C(NC(Cc1ccccc1)C(=O)O)c1cccnc1 (configuration not stated)
- melting point: 206 to 208 °C

SMILES: NC(=O)CCC(C(=O)O)N1C(=O)c2ccccc2C1=O (configuration not stated)
- melting point: 161 to 163 °C

SMILES: NC(=O)NCc1cccnc1
- melting point: 182 to 184 °C

SMILES: CCS(=O)(=O)c1ccccc1Oc1ccc(N)cc1
- melting point: 124 to 126 °C

SMILES: COc1ccc(-c2cc(C(=O)O)nn2-c2ccccc2)cc1
- melting point: 198 to 200 °C

SMILES: CC(C)(C)OC(=O)NC1CCCC1CN (configuration not stated)
- melting point: 99 to 101 °C

SMILES: CC(=O)c1sc2nc(CCl)[nH]c(=O)c2c1C
- melting point: 247 to 249 °C
